Reference: patent publication US8093380B2, “Compounds with the bicyclo[4.2.1]nonane system for the treatment of Flaviviridae infections” (Pharmasset, Inc., priority 2002, dated 2012)
Where a name gives a salt, the structure may show the parent alone.

Legend:
[1] = system: HCV replicon; assay: HCV replicon system in Huh7 cells (real-time RT-PCR of replicon RNA); format: cell-based; conditions: for ΔCt HCV at 100 μM / EC50: Huh7 replicon cells; for ΔCt HCV at 100 μM: ΔCt of 3.3 = 1-log reduction in replicon production; for EC50: calculated from ΔCt values of dilution series
Method: The HCV replicon system in Huh7 cells.
Huh7 cells harboring the HCV replicon were cultivated in DMEM medium (high glucose, no pyruvate), supplemented with 10% fetal bovine serum, 1× non-essential amino acids, Pen-Strep-Glu (100 units/liter, 100 microgram/liter, and 2.92 mg/liter, respectively), and G418 (500 to 1000 microgram/milliliter). Antiviral screening assays were also done in the same medium without G418 as follows. To keep the cells in the logarithmic growth phase, cells were seeded in 96-well plates at low density (for example, 1000 cells per well). The test compound was then added immediately after seeding the cells, and they were incubated for 3 to 7 days at 37° C. in an incubator. The medium was then removed, and the cells were prepared for total RNA extraction (replicon RNA+host RNA). Replicon RNA was then amplified in a real-time RT-PCR (Q-RT-PCR) protocol, and quantified.
In such experiments, a way to express the antiviral effectiveness of a compound is to subtract the average threshold RT-PCR cycle of the negative control (Ctnegative) from the threshold RT-PCR cycle of the test compound (Cttestcompound). This value is called ΔCt (ΔCt=Cttestcompound−Ctnegative). A ΔCt value of 3.3 represents a 1-log reduction in replicon production.
The ΔCt values for each concentration allow the calculation of the 50% effective concentration (EC50).
Compounds were tested for inhibition of HCV RNA replication using the above assay.

[2] = Hematology and blood chemistry in treated chimpanzees; format: in vivo
Method: Hematology and blood chemistry report. The day 0 and day 14 samples were analyzed for hematological and blood chemistry parameters. Essentially, no changes in the baseline and after treatment samples were observed.

[3] = system: human cell lines; assay: Toxicity in several human cell lines; format: cell-based
[4] = system: HCV; assay: 14-day oral treatment of chronically HCV-infected chimpanzees, serum HCV viral load by real-time RT-PCR; format: in vivo
Method: Based on those toxicity data, a 14-day treatment (oral, QD at 5 mg/kg/day) of chronically HCV-infected chimpanzees was conducted. Viral RNA was extracted from the chronically infected chimpanzees serum samples in quadruplicate and the viral RNA pellets were dissolved in RNAse-free water. Subsequently, these RNA samples were amplified by real-time RT-PCR (Applied Biosystems, Foster City, Calif.) for the presence and quantity of the HCV nucleic acids. Primers and probes for HCV were designed using Primer Express (Applied Biosystems). Further details on the methodology will be published (Stuyver et al., 2002; manuscript submitted to Antimicrob. Agents Chemother.).
The results are expressed relative to the viral load in the pretreatment sample. Calculation of the viral load for each sample was based on 4 independent measurements of threshold RT-PCR cycles (Ct values). Mean±SD were calculated for each day's sample. The latter were used to express the observed viral load changes.
Two chimpanzees [Joseph (5.14 log10 IU/ml HCV) and Heppie (5.69 log10 IU/ml HCV)] were treated orally for 14 days with 5 mg/kg/day. The viral load changes that were observed are summarized below (FIG. 1): • 1. […] The viral load remained suppressed with a mean of 0.43 log10 IU/ml up to day 14.

[5] = Toxicity in Swiss outbred mice, IP for 6 consecutive days; format: in vivo; conditions: up to 100 mg/kg
[6] = Oral and IV administration to rhesus monkeys; format: in vivo; conditions: 20 mg/kg
[7] = system: HCV; conditions: ribavirin alone; cited from earlier work

| Compound | ΔCt HCV at 100 μM [1] | EC50 ([1]; Hepatitis C virus, Huh-7) [µM] | further results |
| --- | --- | --- | --- |
| O=c1[nH]c(=O)n2c3c1ncn3C[C@H]1O[C@@H]2C(O)C1O (stereo partly drawn) [Compound 35, 5′,9-Cyclo-3-(β-D-ribofuranosyl)xanthine] | 6.0 | 4 |  |
| N#CCn1c(=O)c2nnn3c2n(c1=O)[C@@H]1O[C@H](C3)C(O)C1O (stereo partly drawn) [77 (R = CH2CN), 1-Cyanomethyl-9,5′-cyclo-3-(β-D-ribofuranosyl)-8-azaxanthine] | 4.7 | < 6 |  |
| Nc1cc(=O)n2c3c1nnn3C[C@H]1O[C@@H]2C(O)C1O (stereo partly drawn) [72 (R = R′ = H), 7-Amino-3,5′-cyclo-4-(β-D-ribofuranosyl)-vic-triazolo[4,5-b]pyridin-5-one] | 5.7 | 4.5 |  |
| O=c1[nH]c(=O)n2c3c1nnn3C[C@H]1O[C@@H]2C(O)C1O (stereo partly drawn) [83 (Y = OH, Z = N), 9,5% Cyclo-3-(2′-deoxy-β-D-erythropentofuranosyl)-8-azaxanthine] | 2.1 | 60 |  |
| O=c1ncc2nnn3c2n1[C@@H]1O[C@H](C3)C(O)C1O (stereo partly shown) [15 (Y = H, Z = N)] | 3.6 | < 10 |  |
| Nc1nc(=O)n2c3c1nnn3C[C@H]1O[C@@H]2C(O)C1O (stereo partly drawn) [75 (R = R′ = H), 9,5′-Cyclo-3-(β-D-ribofuranosyl)-6-amino-8-azapurine-2-one hydrochloride] | 5.3 | 0.7 |  |
| O=c1[nH]c(=S)c2nnn3c2n1[C@@H]1O[C@H](C3)C(O)C1O (stereo partly shown) [15 (Y = SH, Z = N)] | 3.61 | < 6 |  |
| O=c1[nH]c(=O)n2c3c1nnn3C[C@H]1O[C@@H]2C2OC(=S)OC21 (stereo partly drawn) [82 (Y = OH, Z = N), 9,5′-Cyclo-3-(2′,3′O-thiocarbonyl-β-D-ribofuranosyl)-8-azaxanthine] | 4.7 | 12 |  |
| Cl.Nc1nc(=O)n2c3c1ncn3C[C@H]1O[C@@H]2C(O)C1O (stereo partly drawn) [Compound 27, 6-Amino-5′,9-cyclo-3-(β-D-ribofuranosyl)-2-oxo-purine HCl salt] | 6.6 | < 3 |  |
| CC1(C)OC2C(O1)[C@H]1Cn3nnc4c(=S)[nH]c(=O)n(c43)[C@@H]2O1 (stereo partly shown) [73 (Y = SH)] | 4.1 | 25 |  |
| O=c1[nH]c(=O)n2c3c1nnn3C[C@H]1O[C@@H]2C(O)C1O (stereo partly shown) [Compound 65, 9,5′-Cyclo-carba-8-azaxanthosine] | 2.4 |  |  |
| O=c1ccc2nnn3c2n1[C@@H]1O[C@H](C3)C(O)C1O (stereo partly drawn) [15 (Y = H, Z = CH), 9,5′-Cyclo-3-(β-D-ribofuranosyl)-1-deaza-8-azapurine-2-one] | 4.48 | 20 | changes in hematological and blood chemistry parameters ([2]; day 0 versus day 14; oral 5 mg/kg/day; Z=CH), 5 mg/kg/day): No change; hematological and blood chemistry parameters relative to normal range ([2]; throughout the study): remained in the normal range; toxicity in several human cell lines [3]: practically no toxicity; reduction in viral load ([4]; day 4, 5 mg/kg/day QD, in words): significant reduction; maximal drop in HCV viral load ([4]; day 4, chimpanzee Heppie, oral 5 mg/kg/day QD): 0.8 log10 IU/ml; maximal drop in HCV viral load ([4]; day 4, chimpanzee Joseph, oral 5 mg/kg/day QD): 0.5 log10 IU/ml; maximal drop in HCV viral load, mean for both animals ([4]; day 4, mean of both chimpanzees, oral 5 mg/kg/day QD): 0.67 log10 IU/ml; viral load changes ([4]; up to 24 hr after administration of the first dose, oral 5 mg/kg/day): No viral load changes were observed; viral load suppression, mean ([4]; up to day 14, oral 5 mg/kg/day QD): 0.43 log10 IU/ml; in vitro antiviral activity against HCV ([1]; in words): demonstrated in vitro antiviral activity against HCV; toxicity [5]: no toxicity was apparent; death or significant weight loss ([5]; 28 day monitoring): None of the mice died or lost significant weight; untoward effects ([6]; IV administration): Neither oral administration nor IV administration to rhesus monkeys at 20 mg/kg caused any untoward effects; untoward effects ([6]; oral administration): Neither oral administration nor IV administration to rhesus monkeys at 20 mg/kg caused any untoward effects |
| CN(C)c1nc(=O)n2c3c1nnn3C[C@H]1O[C@@H]2C(O)C1O (stereo partly drawn) [75 (R = R′ = Me), 9,5′-Cyclo-3-(β-D-ribofuranosyl)-6-dimethylamino-8-azaxanthine] | 2.4 |  |  |
| C/N=c1/[nH]c(=O)n2c3c1nnn3C[C@H]1O[C@@H]2C(O)C1O (stereo partly drawn) [75 (R = Me, R′ = H), 9,5′-Cyclo-3-(β-D-ribofuranosyl)-6-methylamino-8-azaxanthine] | 6.4 | < 6 |  |
| O=c1c(Cl)cc2nnn3c2n1[C@@H]1O[C@H](C3)C(O)C1O (stereo partly drawn) [71 (X = Cl), 3,5% Cyclo-6-chloro-4-(β-D-ribofuranosyl)-vic-triazolo[4,5-b]pyridin-5-one] | 6.0 | < 0.7 |  |
| O=c1ccc2nnn3c2n1[C@@H]1O[C@H](C3)C2OC(=S)OC21 (stereo partly shown) [82 (Y = H, Z = CH)] | 2.6 |  |  |
| OC1C(O)[C@H]2Cn3nnc4ccc(=S)n(c43)[C@@H]1O2 (stereo partly drawn) [Compound 70, 3,5% Cyclo-4-(β-D-ribofuranosyl)-vic-triazolo[4,5-b]pyridin-5-thione] | 7.0 | 1 |  |
| Cn1c(=O)c2nnn3c2n(c1=O)[C@@H]1O[C@H](C3)C(O)C1O (stereo partly drawn) [77 (R = CH3), 9,5′-Cyclo-1-methyl-3-(β-D-ribofuranosyl)-8-azaxanthine] | 5.9 | 0.4 |  |
| CNc1nc(=O)n2c3c1nnn3C[C@H]1O[C@@H]2C(O)C1O (stereo partly drawn) [72 (R = H, R′ = Me), 3,5′-Cyclo-7-methylamino-4-(β-D-ribofuranosyl)-vic-triazolo[4,5-b]pyridin-5-one] | 6.6 | < 1 |  |
| O=c1c(Br)cc2nnn3c2n1[C@@H]1O[C@H](C3)C(O)C1O (stereo partly drawn) [71 (X = Br), 3,5′-Cyclo-6-bromo-4-(β-D-ribofuranosyl)-vic-triazolo[4,5-b]pyridin-5-one] | 5.9 | < 1 |  |
| O=c1ccc2nnn3c2n1[C@H]1CC(O)[C@@H](C3)O1 (stereo partly shown) [83 (Y = H, Z = CH)] | 5.1 | < 6 |  |
| NC(=O)c1ncn([C@@H]2O[C@H](CO)[C@@H](O)[C@H]2O)n1 [Ribavirin, 1-β-D-ribofuranosyl-1H-1,2,4-triazole-3-carboxamide] |  |  | patients in whom serum amino transferase levels are reduced to normal [7]: 40% |
| CO/N=c1/[nH]c(=O)n2c3c1nnn3C[C@H]1O[C@@H]2C(O)C1O (stereo partly drawn) [75 (R = OMe, R′ = H), 9,5′-Cyclo-3-(β-D-ribofuranosyl)-6-methoxylamino-8-azaxanthine] | 6.5 | < 5 |  |
| O=c1[nH]c(=O)n2c3c1nnn3CC1OC2C(O)C1O [15 (Y = OH, Z = N), 9,5′Cyclo-3-(β-D-ribofuranosyl)-8-azaxanthine] | 6.3 |  | EC50 [1]: < 10 µM |
